Experimental data reported in patent US7592345B2, “Piperazine and [1,4]diazepan derivatives as NK antagonists” (Hoffmann-La Roche Inc., priority 2007, dated 2009).

Target: T1, recombinant human NK3 receptor (Homo sapiens, UniProt P29371)
T1 construct: expressed in transfected cells; host or cells: HEK293 cells (transient expression), membranes
T1 sequence (P29371 1-465): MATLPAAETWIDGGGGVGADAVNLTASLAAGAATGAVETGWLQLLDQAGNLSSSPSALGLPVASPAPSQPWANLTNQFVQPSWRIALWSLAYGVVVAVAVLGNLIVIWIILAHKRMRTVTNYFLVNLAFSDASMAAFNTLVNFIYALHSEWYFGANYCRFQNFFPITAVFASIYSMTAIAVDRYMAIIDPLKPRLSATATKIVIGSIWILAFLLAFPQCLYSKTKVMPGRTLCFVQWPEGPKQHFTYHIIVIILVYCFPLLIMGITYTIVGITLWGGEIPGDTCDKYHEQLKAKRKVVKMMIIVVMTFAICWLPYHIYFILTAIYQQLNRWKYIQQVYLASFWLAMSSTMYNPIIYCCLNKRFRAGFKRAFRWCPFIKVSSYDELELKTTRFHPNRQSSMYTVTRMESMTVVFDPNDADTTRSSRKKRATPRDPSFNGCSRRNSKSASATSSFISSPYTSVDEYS
Test: [3H]SR142801 competition binding assay
Settings: [3H]SR142801, membranes from HEK293 cells transiently expressing recombinant human NK3 receptor; read-out: hNK3 Ki
Experimental: [^3H]SR142801 Competition Binding Assay
hNK3 receptor binding experiment were performed using [^3H]SR142801 (Catalog No. TRK1035, specific activity: 74.0 Ci/mmol, Amersham, GE Healthcare UK limited, Buckinghamshire, UK) and membrane isolated from HEK293 cells transiently expressing recombinant human NK3 receptor. After thawing, the membrane homogenates were centrifuged at 48,000×g for 10 min at 4° C., the pellets were resuspended in the 50 mM Tris-HCl, 4 mM MnCl2, 1 μM phosphoramidon, 0.1% BSA binding buffer at pH 7.4 to a final assay concentration of 5 μg protein/well. For inhibition experiments, membranes were incubated with [^3H]SR142801 at a concentration equal to KD value of radioligand and 10 concentrations of the inhibitory compound (0.0003-10 μM) (in a total reaction volume of 500 μl) for 75 min at room temperature (RT). At the end of the incubation, membranes were filtered onto unitfilter (96-well white microplate with bonded GF/C filter preincubated 1 h in 0.3% PEI+0.3% BSA, Packard BioScience, Meriden, Conn.) with a Filtermate 196 harvester (Packard BioScience) and washed 4 times with ice-cold 50 mM Tris-HCl, pH 7.4 buffer. Nonspecific binding was measured in the presence of 10 μM SB222200 for both radioligands. The radioactivity on the filter was counted (5 min) on a Packard Top-count microplate scintillation counter with quenching correction after addition of 45 μl of microscint 40 (Canberra Packard S. A., Zürich, Switzerland) and shaking for 1 h. Inhibition curves were fitted according to the Hill equation: y=100/(1+(x/IC50)^nH), where nH=slope factor using Excel-fit 4 software (Microsoft). IC50 values were derived from the inhibition curve and the affinity constant (Ki) values were calculated using the Cheng-Prussoff equation Ki=IC50/(1+[L]/KD) where [L] is the concentration of radioligand and KD is its dissociation constant at the receptor, derived from the saturation isotherm. All experiments were performed in duplicate and the mean±standard error (SEM) of the individual Ki values was calculated.

Ki | SMILES
0.0192 µM | C[C@H]1CN(CC[C@](C)(C(=O)NCc2ccc(Cl)c(Cl)c2)c2ccc(Cl)c(Cl)c2)CCN1S(C)(=O)=O (single isomer, unassigned) [Example 93, (S or R)—N-(3,4-Dichloro-benzyl)-2-(3,4-dichloro-phenyl)-4-((R)-4-methanesulfonyl-3-methyl-piperazin-1-yl)-2-methyl-butyramide]
0.112 µM | C[C@H]1CN(CC[C@@](C)(C(=O)NCc2ccc(Cl)c(Cl)c2)c2ccc(Cl)c(Cl)c2)CCN1S(C)(=O)=O (single isomer, unassigned) [Example 94, (R or S)—N-(3,4-Dichloro-benzyl)-2-(3,4-dichloro-phenyl)-4-((R)-4-methanesulfonyl-3-methyl-piperazin-1-yl)-2-methyl-butyramide]
0.0406 µM | CC(CCN1CCN(S(C)(=O)=O)CC1)(C(=O)N[C@@H](CO)c1ccccc1)c1ccc(Cl)c(Cl)c1 (single isomer, unassigned) [Example 128, (R or S)-2-(3,4-Dichloro-phenyl)-N-((R)-2-hydroxy-1-phenyl-ethyl)-4-(4-methanesulfonyl-piperazin-1-yl)-2-methyl-butyramide]
0.334 µM | CC(CCN1CCN(S(C)(=O)=O)CC1)(C(=O)N[C@@H](CO)c1ccccc1)c1ccc(Cl)c(Cl)c1 (single isomer, unassigned) [Example 129, (S or R)-2-(3,4-Dichloro-phenyl)-N-((R)-2-hydroxy-1-phenyl-ethyl)-4-(4-methanesulfonyl-piperazin-1-yl)-2-methyl-butyramide]
0.171 µM | CN(Cc1ccc(Cl)cc1)C(=O)C(CCN1CCN(S(C)(=O)=O)CC1)c1ccc(Cl)c(Cl)c1 (stereo not shown) [Example 1, N-(4-Chloro-benzyl)-2-(3,4-dichloro-phenyl)-4-(4-methanesulfonyl-piperazin-1-yl)-N-methyl-butyramide]
0.315 µM | CN(Cc1ccc(-c2ccncc2)cc1)C(=O)C(CCN1CCN(S(C)(=O)=O)CC1)c1ccc(Cl)c(Cl)c1 (stereo not shown) [Example 2, 2-(3,4-Dichloro-phenyl)-4-(4-methanesulfonyl-piperazin-1-yl)-N-methyl-N-(4-pyridin-4-yl-benzyl)-butyramide]
0.655 µM | CN(Cc1ccccc1Cl)C(=O)C(CCN1CCN(S(C)(=O)=O)CC1)c1ccc(Cl)c(Cl)c1 (stereo not shown) [Example 3, N-(2-Chloro-benzyl)-2-(3,4-dichloro-phenyl)-4-(4-methanesulfonyl-piperazin-1-yl)-N-methyl-butyramide]
0.355 µM | CN(Cc1ccccc1)C(=O)C(CCN1CCN(S(C)(=O)=O)CC1)c1ccc(Cl)c(Cl)c1 (stereo not shown) [Example 4, N-Benzyl-2-(3,4-dichloro-phenyl)-4-(4-methanesulfonyl-piperazin-1-yl)-N-methyl-butyramide]
0.136 µM | CN(Cc1ccc(C(F)(F)F)cc1)C(=O)C(CCN1CCN(S(C)(=O)=O)CC1)c1ccc(Cl)c(Cl)c1 (stereo not shown) [Example 5, 2-(3,4-Dichloro-phenyl)-4-(4-methanesulfonyl-piperazin-1-yl)-N-methyl-N-(4-trifluoromethyl-benzyl)-butyramide]
0.69 µM | COc1ccc(CN(C)C(=O)C(CCN2CCN(S(C)(=O)=O)CC2)c2ccc(Cl)c(Cl)c2)cc1F (stereo not shown) [Example 6, 2-(3,4-Dichloro-phenyl)-N-(3-fluoro-4-methoxy-benzyl)-4-(4-methanesulfonyl-piperazin-1-yl)-N-methyl-butyramide]
0.388 µM | CN(Cc1cccc(F)c1)C(=O)C(CCN1CCN(S(C)(=O)=O)CC1)c1ccc(Cl)c(Cl)c1 (stereo not shown) [Example 7, 2-(3,4-Dichloro-phenyl)-N-(3-fluoro-benzyl)-4-(4-methanesulfonyl-piperazin-1-yl)-N-methyl-butyramide]
0.288 µM | CC(CCN1CCN(S(C)(=O)=O)CC1)(C(=O)NCc1cccc(C(F)(F)F)c1)c1ccc(Cl)c(Cl)c1 (stereo not shown) [Example 8, 2-(3,4-Dichloro-phenyl)-4-(4-methanesulfonyl-piperazin-1-yl)-2-methyl-N-(3-trifluoromethyl-benzyl)-butyramide]
0.19 µM | CC(CCN1CCN(S(C)(=O)=O)CC1)(C(=O)NCc1cccc(OC(F)(F)F)c1)c1ccc(Cl)c(Cl)c1 (stereo not shown) [Example 9, 2-(3,4-Dichloro-phenyl)-4-(4-methanesulfonyl-piperazin-1-yl)-2-methyl-N-(3-trifluoromethoxy-benzyl)-butyramide]
0.145 µM | CN(Cc1cccc(Cl)c1)C(=O)C(C)(CCN1CCN(S(C)(=O)=O)CC1)c1ccc(Cl)c(Cl)c1 (stereo not shown) [Example 10, N-(3-Chloro-benzyl)-2-(3,4-dichloro-phenyl)-4-(4-methanesulfonyl-piperazin-1-yl)-2,N-dimethyl-butyramide]
0.417 µM | CC(CCN1CCN(S(C)(=O)=O)CC1)(C(=O)NCc1cccc(OC(F)F)c1)c1ccc(Cl)c(Cl)c1 (stereo not shown) [Example 11, 2-(3,4-Dichloro-phenyl)-N-(3-difluoromethoxy-benzyl)-4-(4-methanesulfonyl-piperazin-1-yl)-2-methyl-butyramide]
0.0664 µM | CN(Cc1ccc(Cl)cc1)C(=O)C(C)(CCN1CCN(S(C)(=O)=O)CC1)c1ccc(Cl)c(Cl)c1 (stereo not shown) [Example 12, N-(4-Chloro-benzyl)-2-(3,4-dichloro-phenyl)-4-(4-methanesulfonyl-piperazin-1-yl)-2,N-dimethyl-butyramide]
0.326 µM | CC(CCN1CCN(S(C)(=O)=O)CC1)(C(=O)NCc1ccc(OC(F)F)cc1)c1ccc(Cl)c(Cl)c1 (stereo not shown) [Example 13, 2-(3,4-Dichloro-phenyl)-N-(4-difluoromethoxy-benzyl)-4-(4-methanesulfonyl-piperazin-1-yl)-2-methyl-butyramide]
0.171 µM | CC(NC(=O)C(C)(CCN1CCN(S(C)(=O)=O)CC1)c1ccc(Cl)c(Cl)c1)c1ccc(Cl)cc1 (stereo not shown) [Example 14, N-[1-(4-Chloro-phenyl)-ethyl]-2-(3,4-dichloro-phenyl)-4-(4-methanesulfonyl-piperazin-1-yl)-2-methyl-butyramide]
0.234 µM | COc1ccc(C(NC(=O)C(C)(CCN2CCN(S(C)(=O)=O)CC2)c2ccc(Cl)c(Cl)c2)C2CC2)cc1 (stereo not shown) [Example 15, N-[Cyclopropyl-(4-methoxy-phenyl)-methyl]-2-(3,4-dichloro-phenyl)-4-(4-methanesulfonyl-piperazin-1-yl)-2-methyl-butyramide]
0.169 µM | CN(Cc1ccccc1Cl)C(=O)C(C)(CCN1CCN(S(C)(=O)=O)CC1)c1ccc(Cl)c(Cl)c1 (stereo not shown) [Example 16, N-(2-Chloro-benzyl)-2-(3,4-dichloro-phenyl)-4-(4-methanesulfonyl-piperazin-1-yl)-2,N-dimethyl-butyramide]
0.146 µM | CC(CCN1CCN(S(C)(=O)=O)CC1)(C(=O)NCc1ccc(OC(F)(F)F)cc1)c1ccc(Cl)c(Cl)c1 (stereo not shown) [Example 17, 2-(3,4-Dichloro-phenyl)-4-(4-methanesulfonyl-piperazin-1-yl)-2-methyl-N-(4-trifluoromethoxy-benzyl)-butyramide]
0.434 µM | CC(CCN1CCN(S(C)(=O)=O)CC1)(C(=O)NCc1ccc(C#N)cc1)c1ccc(Cl)c(Cl)c1 (stereo not shown) [Example 18, N-(4-Cyano-benzyl)-2-(3,4-dichloro-phenyl)-4-(4-methanesulfonyl-piperazin-1-yl)-2-methyl-butyramide]
0.429 µM | CC(CCN1CCN(S(C)(=O)=O)CC1)(C(=O)NCc1ccccc1OC(F)(F)F)c1ccc(Cl)c(Cl)c1 (stereo not shown) [Example 19, 2-(3,4-Dichloro-phenyl)-4-(4-methanesulfonyl-piperazin-1-yl)-2-methyl-N-(2-trifluoromethoxy-benzyl)-butyramide]
0.0671 µM | CC(CCN1CCN(S(C)(=O)=O)CC1)(C(=O)NCc1ccc(C(F)(F)F)c(F)c1)c1ccc(Cl)c(Cl)c1 (stereo not shown) [Example 20, 2-(3,4-Dichloro-phenyl)-N-(3-fluoro-4-trifluoromethyl-benzyl)-4-(4-methanesulfonyl-piperazin-1-yl)-2-methyl-butyramide]
0.0655 µM | CC(CCN1CCN(S(C)(=O)=O)CC1)(C(=O)NCc1ccc(Cl)c(Cl)c1)c1ccc(Cl)c(Cl)c1 (stereo not shown) [Example 21, N-(3,4-Dichloro-benzyl)-2-(3,4-dichloro-phenyl)-4-(4-methanesulfonyl-piperazin-1-yl)-2-methyl-butyramide]
